Read-outs that look alike come from different tables or passages of the source.
Legend:
[1] = target: T1, Human Tryptophan 2,3-dioxygenase (TDO) (Homo sapiens, UniProt P48775); experiment: Human TDO enzymatic assay (kynurenine level); assay type: biochemical; settings: 1 nM TDO, 350 μM L-Trp; geometric mean; read-out: TDO GMean: IC50 (μM) (Biochemical Assay)
T1 construct: His tag (N); made in house; host or cells: E. coli
Method in brief: (§1)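 Compound is mixed with His-tagged enzyme from E. coli in pH 6.5 phosphate buffer containing ascorbate, methylene blue and catalase, at room temperature. IDO uses 6 nM enzyme and 10 μM Trp for 20 min. TDO uses 1 nM enzyme and 350 μM Trp for 70 min. TCA stops the reaction, and IC50 is derived from kynurenine levels.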

[2] = target: T2, human TDO (TDO-expressing HEK293 cells) (Homo sapiens, UniProt P48775); experiment: Cell based kynurenine assay, TDO-expressing HEK293 cell clones; settings: TDO-expressing HEK293 cells, geometric mean, read-out: HEK293 TDO Kynurenine GMean IC50 (μM) (Cellular Assay)
T2 construct: expressed in transfected cells
T2 sequence (P48775 whole entry): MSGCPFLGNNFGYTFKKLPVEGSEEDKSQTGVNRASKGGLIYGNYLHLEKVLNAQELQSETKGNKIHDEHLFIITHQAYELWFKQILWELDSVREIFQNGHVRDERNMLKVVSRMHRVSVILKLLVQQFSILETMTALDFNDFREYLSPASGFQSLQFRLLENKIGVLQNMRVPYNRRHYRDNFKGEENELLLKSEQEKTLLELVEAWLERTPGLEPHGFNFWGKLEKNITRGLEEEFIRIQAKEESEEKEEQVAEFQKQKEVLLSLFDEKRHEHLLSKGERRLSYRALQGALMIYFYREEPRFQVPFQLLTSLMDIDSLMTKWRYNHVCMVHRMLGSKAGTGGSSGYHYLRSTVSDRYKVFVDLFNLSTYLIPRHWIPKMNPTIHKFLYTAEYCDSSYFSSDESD
Method in brief: (§2)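 HEK293 clones stably expressing human IDO1 or human TDO (CMV promoter), 2.5×10^4 cells/well, given serial compound dilutions for 24 h. Kynurenine measured in supernatant; inhibition relative to cell/0.2% DMSO and media-only controls. IC50 by nonlinear regression.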

[3] = target: T3, human IDO (IDO1-expressing HEK293 cells) (Homo sapiens, UniProt P14902); experiment: Cell based kynurenine assay, IDO1-expressing HEK293 cell clones; settings: IDO1-expressing HEK293 cells, geometric mean, read-out: HEK293 IDO1 Kynurenine GMean IC50 (μM) (Cellular Assay)
T3 construct: expressed in transfected cells
T3 sequence (P14902 whole entry): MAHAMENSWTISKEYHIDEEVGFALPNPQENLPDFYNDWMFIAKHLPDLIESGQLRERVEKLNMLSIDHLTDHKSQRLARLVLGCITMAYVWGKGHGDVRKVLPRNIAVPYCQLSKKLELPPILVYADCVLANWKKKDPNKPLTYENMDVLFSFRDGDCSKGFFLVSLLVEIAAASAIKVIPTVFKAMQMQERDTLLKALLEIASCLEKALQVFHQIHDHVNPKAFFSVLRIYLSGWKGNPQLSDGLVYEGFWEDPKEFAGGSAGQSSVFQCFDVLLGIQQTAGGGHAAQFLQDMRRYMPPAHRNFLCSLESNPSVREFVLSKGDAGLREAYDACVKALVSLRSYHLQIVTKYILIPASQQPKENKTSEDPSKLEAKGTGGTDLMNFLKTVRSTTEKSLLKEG
Method in brief: as §2

[4] = target: T4, Human Indoleamine 2,3-dioxygenase (IDO) (Homo sapiens, UniProt P14902); experiment: Human IDO enzymatic assay (kynurenine level); assay type: biochemical; settings: 6 nM IDO, 10 μM L-Trp; geometric mean; read-out: IDO1 GMean: IC50 (μM) (Biochemical Assay)
T4 construct: His tag (N); made in house; host or cells: E. coli
T4 sequence (P14902 whole entry): as above
Method in brief: as §1

T1 sequence (P48775 whole entry): as the sequence (P48775 whole entry) above

Compound | IC50 [1] [µM] | IC50 ([2]; 24 hours incubation) [µM] | IC50 ([3]; 24 hours incubation) [µM] | IC50 [4] [µM] | IC50 ([2]; 24 hours) [µM] | IC50 ([3]; 24 hours) [µM]
CCCC1(C(O)c2cc(Cl)cc3cn[nH]c23)CCC1 (stereo not drawn) [Compound P-0121, (5-chloro-1H-indazol-7-yl)(1-propylcyclobutyl)methanol] | 0.0001 to 10 | 0.0001 to 10 | 0.0001 to 10 | 0.0001 to 10 |  | 
OC(c1c(F)c(Cl)cc2cn[nH]c12)C1(C2CCOCC2)CC1 (stereo not drawn) [Compound P-0235, (5-chloro-6-fluoro-1H-indazol-7-yl)(1-(tetrahydro-2H-pyran-4-yl)cyclopropyl)methanol] | 0.0001 to 10 | 0.0001 to 10 | 0.0001 to 10 | 0.0001 to 10 |  | 
OC(c1c(F)c(Cl)cc2cn[nH]c12)C12CCC(CC1)CC2 (racemic) [Compound P-0294, bicyclo[2.2.2]octan-1-yl(5-chloro-6-fluoro-1H-indazol-7-yl)methanol] | 0.0001 to 10 | 0.0001 to 10 | 0.0001 to 10 | 0.0001 to 10 |  | 
CC1(C(O)c2cc(Cl)cc3cn[nH]c23)COC1 (stereo not drawn) [Compound P-0211, (5-chloro-1H-indazol-7-yl)(3-methyloxetan-3-yl)methanol] | 0.0001 to 10 | 0.0001 to 10 | 0.0001 to 10 | 0.0001 to 10 |  | 
OC(CCC1CCCCC1)c1cc(Cl)cc2cn[nH]c12 (stereo not drawn) [Compound P-0009, 1-(5-chloro-1H-indazol-7-yl)-3-cyclohexylpropan-l-ol] | 0.0001 to 10 | > 10 | 0.0001 to 10 | 0.0001 to 10 |  | 
CC(C)(C1CCN(C(=O)CC2CCS(=O)(=O)CC2)CC1)C(O)c1cc(Cl)cc2cn[nH]c12 (stereo not drawn) [Compound P-0448, 1-(4-(1-(5-chloro-1H-indazol-7-yl)-1-hydroxy-2-methylpropan-2-yl)piperidin-l-yl)-2-(1,1-dioxidotetrahydro-2H-thiopyran-4-yl)ethan-1-one] | 0.0001 to 10 |  |  | 0.0001 to 10 | 0.0001 to 10 | 0.0001 to 10
CS(=O)(=O)NC1CC(O)(c2cc(Cl)cc3cn[nH]c23)C1 (stereo not drawn) [Compound P-0038, N-(3-(5-chloro-1H-indazol-7-yl)-3-hydroxycyclobutyl)methanesulfonamide] | 0.0001 to 10 | 0.0001 to 10 | > 10 | 0.0001 to 10 |  | 
CC(C)(C(O)c1cc(Cl)cc2cn[nH]c12)C(F)(F)F (stereo not drawn) [Compound P-0250, 1-(5-chloro-1H-indazol-7-yl)-3,3,3-trifluoro-2,2-dimethylpropan-1-ol] | 0.0001 to 10 | 0.0001 to 10 | 0.0001 to 10 | 0.0001 to 10 |  | 
OC(c1cc(Cl)c(F)c2cn[nH]c12)C(F)(F)C1CCOCC1 (stereo not drawn) [Compound P-0218, 1-(5-chloro-4-fluoro-1H-indazol-7-yl)-2,2-difluoro-2-(tetrahydro-2H-pyran-4-yl)ethan-1-ol] | 0.0001 to 10 | 0.0001 to 10 | 0.0001 to 10 | 0.0001 to 10 |  | 
CC(C)(C)OC(=O)N1CCC(C(C)(C)[C@H](O)c2c(F)c(Cl)cc3cn[nH]c23)CC1 [Compound P-0383, tert-butyl (S)-4-(1-(5-chloro-6-fluoro-1H-indazol-7-yl)-1-hydroxy-2-methylpropan-2-yl)piperidine-1-carboxylate] | 0.0001 to 10 | 0.0001 to 10 | 0.0001 to 10 | 0.0001 to 10 |  | 
CC(C)(C1CCN(C(=O)c2c(F)cccc2Cl)CC1)C(O)c1cc(Cl)cc2cn[nH]c12 (stereo not drawn) [Compound P-0369, (4-(1-(5-chloro-1H-indazol-7-yl)-1-hydroxy-2-methylpropan-2-yl)piperidin-1-yl)(2-chloro-6-fluorophenyl) methanone] | 0.0001 to 10 | 0.0001 to 10 | 0.0001 to 10 | 0.0001 to 10 |  | 
OC(c1cc(Cl)cc2cn[nH]c12)C1(C2CCCCC2)CC1 (stereo not drawn) [Compound P-0187, (5-chloro-1H-indazol-7-yl)(1-cyclohexylcyclopropyl)methanol] | 0.0001 to 10 | 0.0001 to 10 | 0.0001 to 10 | 0.0001 to 10 |  | 
O=C(CN1CCS(=O)(=O)CC1)N1CCC(C(F)(F)C(O)c2cc(Cl)cc3cn[nH]c23)CC1 (stereo not drawn) [Compound P-0485, 1-(4-(2-(5-chloro-1H-indazol-7-yl)-1,1-difluoro-2-hydroxyethyl)piperidin-1-yl)-2-(1,1-dioxidothiomorpholino) ethan-1-one] | 0.0001 to 10 |  |  | 0.0001 to 10 | > 10 | 0.0001 to 10
CC(C)(C1CCOCC1)C(O)c1cc(Cl)c(F)c2cn[nH]c12 (stereo not drawn) [Compound P-0217, 1-(5-chloro-4-fluoro-1H-indazol-7-yl)-2-methyl-2-(tetrahydro-2H-pyran-4-yl)propan-1-ol] | 0.0001 to 10 | 0.0001 to 10 | 0.0001 to 10 | 0.0001 to 10 |  | 
CC(C)(C1CCN(C(=O)NCCO)CC1)[C@H](O)c1cc(Cl)cc2cn[nH]c12 [Compound P-0499, (S)-4-(1-(5-chloro-1H-indazol-7-yl)-1-hydroxy-2-methylpropan-2-yl)-N-(2-hydroxyethyl)piperidine-1-carboxamide] | 0.0001 to 10 |  |  | 0.0001 to 10 | 0.0001 to 10 | 0.0001 to 10
CC(C)(C1CCN(C(=O)C2CCOCC2)CC1)C(O)c1cc(Cl)cc2cn[nH]c12 (stereo not drawn) [Compound P-0458, (4-(1-(5-chloro-1H-indazol-7-yl)-1-hydroxy-2-methylpropan-2-yl)piperidin-1-yl)(tetrahydro-2H-pyran-4-yl)methanone] | 0.0001 to 10 |  |  | 0.0001 to 10 | 0.0001 to 10 | 0.0001 to 10
O[C@H](c1c(F)c(Cl)cc2cn[nH]c12)C12CCC(CC1)CC2 [Compound P-0334, (S)-bicyclo[2.2.2]octan-1-yl(5-chloro-6-fluoro-1H-indazol-7-yl)methanol] | 0.0001 to 10 | 0.0001 to 10 | 0.0001 to 10 | 0.0001 to 10 |  | 
OC1(c2cc(Cl)cc3cn[nH]c23)CCC1 [Compound P-0206, 1-(5-chloro-1H-indazol-7-yl)cyclobutan-1-ol] | 10 to 100 | 0.0001 to 10 | > 10 | 10 to 100 |  | 
Cc1cc(C(O)C2(C)CCCCC2)c2[nH]ncc2c1 (stereo not drawn) [Compound P-0014, (5-methyl-1H-indazol-7-yl)(1-methylcyclohexyl)methanol] | 0.0001 to 10 | 0.0001 to 10 | 0.0001 to 10 | 0.0001 to 10 |  | 
OC(c1cc(Cl)c(F)c2cn[nH]c12)C12CCC(CC1)CC2 (stereo not drawn) [Compound P-0135, bicyclo[2.2.2]octan-1-yl(5-chloro-4-fluoro-1H-indazol-7-yl)methanol] | 0.0001 to 10 | 0.0001 to 10 | 0.0001 to 10 | 0.0001 to 10 |  | 
O=C(Nc1cccc(F)c1)N1CCC(C(F)(F)C(O)c2cc(Cl)cc3cn[nH]c23)CC1 (stereo not drawn) [Compound P-0152, 4-(2-(5-chloro-1H-indazol-7-yl)-1,1-difluoro-2-hydroxyethyl)-N-(3-fluorophenyl)piperidine-1-carboxamide] | 0.0001 to 10 | 0.0001 to 10 | 0.0001 to 10 | 0.0001 to 10 |  | 
O=S(=O)(NC1CC(O)(c2cc(Cl)cc3cn[nH]c23)C1)C1CC1 (stereo not drawn) [Compound P-0045, N-(3-(5-chloro-1H-indazol-7-yl)-3-hydroxycyclobutyl)cyclopropanesulfonamide] | 0.0001 to 10 | 0.0001 to 10 | > 10 | 10 to 100 |  | 
OC(c1cc(Cl)cc2cn[nH]c12)C12CCC(O)(CC1)CC2 (stereo not drawn) [Compound P-0133, 4-((5-chloro-1H-indazol-7-yl)(hydroxy)methyl)bicyclo[2.2.2]octan-1-ol] | 0.0001 to 10 | 0.0001 to 10 | 0.0001 to 10 | 0.0001 to 10 |  | 
COC(=O)N1CCC(C(C)(C)C(O)c2cc(Cl)cc3cn[nH]c23)CC1 (stereo not drawn) [Compound P-0321, methyl 4-(1-(5-chloro-1H-indazol-7-yl)-1-hydroxy-2-methylpropan-2-yl)piperidine-1-carboxylate] | 0.0001 to 10 | 0.0001 to 10 | 0.0001 to 10 | 0.0001 to 10 |  | 
CC(C)(C1CCN(C(=O)NC2CC2)CC1)[C@H](O)c1cc(Cl)cc2cn[nH]c12 [Compound P-0551, (S)-4-(1-(5-chloro-1H-indazol-7-yl)-1-hydroxy-2-methylpropan-2-yl)-N-cyclopropylpiperidine-1-carboxamide] | 0.0001 to 10 |  |  | 0.0001 to 10 | 0.0001 to 10 | 0.0001 to 10
CC(C)(C1CCN(C(=O)CC2CCOCC2)CC1)[C@H](O)c1cc(Cl)cc2cn[nH]c12 [Compound P-0532, (S)-1-(4-(1-(5-chloro-1H-indazol-7-yl)-1-hydroxy-2-methylpropan-2-yl)piperidin-1-yl)-2-(tetrahydro-2H-pyran-4-yl)ethan-1-one] | 0.0001 to 10 |  |  | 0.0001 to 10 | 0.0001 to 10 | 0.0001 to 10
OC(CC1CCOCC1)c1cccc2cncn12 (stereo not drawn) [Compound P-0084, 1-(imidazo[1,5-a]pyridin-5-yl)-2-(tetrahydro-2H-pyran-4-yl)ethan-l-ol] | 0.0001 to 10 | > 10 | > 10 | 0.0001 to 10 |  | 
